According to ChEMBL document CHEMBL4020764, “Phytochemical and cytotoxic studies on the leaves of Calotropis gigantea” (Bioorg Med Chem Lett, 2017):
pIC50: −log10 of the molar value. Active and inactive are the calls of the source. The calls are words filed in the database; no cut-off is given here.

What was measured:
PANC-1 [1] = test: Cytotoxicity against human PANC1 cells after 72 hrs by WST8 assay; assay type: functional, cell-based; details: PANC-1, 72 h
PANC-1 [2] = test: Growth inhibition of human PANC1 cells after 72 hrs by WST8 assay; assay type: functional; details: PANC-1, 72 h
PANC-1 [3] = test: Cytotoxicity against human PANC1 cells at >25 uM measured after 72 hrs by WST8 assay; assay type: functional, cell-based
PANC-1 [4] = test: Induction of morphological changes in human PANC1 cells assessed as cell rounding at 5 to 10 uM after 72 hrs by ethidium bromide/acridine orange staining based fluorescent microscopic analysis; assay type: functional
PANC-1 [5] = test: Induction of morphological changes in human PANC1 cells assessed as disruption of cellular organelles at 5 to 10 uM after 72 hrs by ethidium bromide/acridine orange staining based fluorescent microscopic analysis; assay type: functional, cell-based
PANC-1 [6] = test: Induction of morphological changes in human PANC1 cells assessed as increase in EB positive cells at 5 to 10 uM after 72 hrs by ethidium bromide/acridine orange staining based fluorescent microscopic analysis; assay type: functional, cell-based
PANC-1 [7] = test: Inhibition of colony formation in human PANC1 cells after 10 days by crystal violet staining based assay; assay type: functional, cell-based

Structure (SMILES): CO[C@@H]1C[C@@H](OCc2ccc(C=O)o2)O[C@@H](C)[C@@H]1O
- pIC50 (PANC-1 [1]): < 4.00

Structure (SMILES): O=Cc1ccc(CO)o1 [AES-103]
- pIC50 (PANC-1 [1]): < 4.00

Structure (SMILES): CC(=O)[C@]1(O)CC[C@]2(O)[C@@H]3CC=C4C[C@@H](O)CC[C@]4(C)[C@H]3C[C@@H](OC(=O)c3ccccc3)[C@]12C
- pIC50 (PANC-1 [1]): 4.73

Structure (SMILES): Nc1ccn([C@@H]2O[C@H](CO)[C@@H](O)C2(F)F)c(=O)n1 [GEMCITABINE]
- GI50 (PANC-1 [2]): 5.8 µM
- Activity (PANC-1 [3]): Active

Structure (SMILES): Cc1ncccc1O
- pIC50 (PANC-1 [1]): < 4.00

Structure (SMILES): COc1cc([C@H]2OC[C@H]3[C@@H]2CO[C@@H]3c2cc(OC)c(O)c(OC)c2)cc(OC)c1O [SYRINGARESINOL]
- pIC50 (PANC-1 [1]): 4.21

Structure (SMILES): COc1cc([C@H]2OC[C@H]3[C@@H]2CO[C@@H]3c2ccc(O)c(OC)c2)ccc1O
- pIC50 (PANC-1 [1]): 4.43

Structure (SMILES): CC(=O)[C@H]1CC[C@@]2(O)[C@@H]3C=CC4=CC(=O)CC[C@]4(C)[C@H]3CC[C@]12C
- pIC50 (PANC-1 [1]): 4.10

Structure (SMILES): CO[C@H]1C[C@@H](OCc2ccc(C=O)o2)O[C@@H]1[C@@H](C)O
- pIC50 (PANC-1 [1]): < 4.00

Structure (SMILES): CC(=O)[C@H]1CC[C@H]2[C@@H]3C=CC4=CC(=O)CC[C@]4(C)[C@H]3CC[C@]12C
- pIC50 (PANC-1 [1]): 4.40

Structure (SMILES): COc1cc(C(=O)OC[C@H]2O[C@@H](Oc3ccc([C@H]4OC[C@H]5[C@@H]4CO[C@@H]5c4ccc(O)c(OC)c4)cc3OC)[C@H](O)[C@@H](O)[C@@H]2O)ccc1O
- pIC50 (PANC-1 [1]): 4.20

Structure (SMILES): O=C(/C=C/c1ccc(O)cc1)c1ccc(O)cc1O [ISOLIQUIRITIGENIN]
- pIC50 (PANC-1 [1]): 5.48

Structure (SMILES): COc1cc([C@H]2O[C@@H](OC)[C@H]3[C@@H]2CO[C@@H]3c2ccc(O)c(OC)c2)ccc1O
- pIC50 (PANC-1 [1]): 5.43
- Activity (PANC-1 [4]): Active
- Activity (PANC-1 [5]): Active
- Activity (PANC-1 [6]): Active
- inhibition (PANC-1 [7]): Dose-dependent effect
